Results published in ChEMBL document CHEMBL3044958, “Synthesis, evaluation of 6,8-dibromo-2-aryl-2,3-dihydroquinolin-4(1H)-ones in MCF-7 (breast cancer) cell lines and their docking studies” (2012).

Key:
Type in all cases: functional
[1] = test system: MCF7; assay: Growth inhibition of Homo sapiens (human) MCF-7 cells assessed as cell growth at 10 '-5 M after 48 hr by SRB assay; conditions: MCF7, 48 h, read-out: Activity
[2] = test system: MCF7; assay: Growth inhibition of Homo sapiens (human) MCF-7 cells assessed as cell growth at 10 '-6 M after 48 hr by SRB assay; conditions: MCF7, 48 h, read-out: Activity
[3] = test system: MCF7; assay: Growth inhibition of Homo sapiens (human) MCF-7 cells after 48 hr by SRB assay; conditions: MCF7, 48 h
[4] = test system: MCF7; assay: Cytotoxicity against Homo sapiens (human) MCF-7 cells after 48 hr by SRB assay; conditions: MCF7, 48 h
[5] = test system: MCF7; assay: Growth inhibition of Homo sapiens (human) MCF-7 cells assessed as cell growth at 10 '-7 M after 48 hr by SRB assay; conditions: MCF7, 48 h, read-out: Activity
[6] = test system: MCF7; assay: Growth inhibition of Homo sapiens (human) MCF-7 cells assessed as total cell growth after 48 hr by SRB assay
[7] = test system: MCF7; assay: Growth inhibition of Homo sapiens (human) MCF-7 cells assessed as cell growth at 10 '-4 M after 48 hr by SRB assay; conditions: MCF7, 48 h, read-out: Activity

SMILES: O=C1CC(c2ccc(Br)cc2)Nc2c(Br)cc(Br)cc21 (stereo unspecified)
- growth at 10 µM [1]: 12.5%
- growth at 1 µM [2]: 69.7%
- GI50 [3]: 151 nM
- LC50 (concentration killing 50% of cells) [4]: > 100000 nM
- growth at 0.1 µM [5]: 69.7%
- TGI [6]: 2600 nM
- growth at 100 µM [7]: -43%

SMILES: O=C1CC(c2ccc([N+](=O)[O-])cc2)Nc2c(Br)cc(Br)cc21 (stereo unspecified)
- growth at 10 µM [1]: -4.4%
- growth at 1 µM [2]: 8.6%
- GI50 [3]: < 100 nM
- LC50 (concentration killing 50% of cells) [4]: > 100000 nM
- growth at 0.1 µM [5]: 50.5%
- TGI [6]: 132 nM
- growth at 100 µM [7]: -52.3%

SMILES: N#Cc1ccc(C2CC(=O)c3cc(Br)cc(Br)c3N2)cc1 (stereo unspecified)
- growth at 10 µM [1]: -5.1%
- growth at 1 µM [2]: 8.2%
- GI50 [3]: < 100 nM
- LC50 (concentration killing 50% of cells) [4]: > 100000 nM
- growth at 0.1 µM [5]: 43.1%
- TGI [6]: 126 nM
- growth at 100 µM [7]: -58.5%

SMILES: COc1ccc(C2CC(=O)c3cc(Br)cc(Br)c3N2)cc1 (stereo unspecified)
- growth at 10 µM [1]: 87.8%
- growth at 1 µM [2]: 140%
- GI50 [3]: > 100000 nM
- LC50 (concentration killing 50% of cells) [4]: > 100000 nM
- growth at 0.1 µM [5]: 168%
- TGI [6]: > 100000 nM
- growth at 100 µM [7]: 7.1%

SMILES: O=C1CC(c2ccc(O)cc2)Nc2c(Br)cc(Br)cc21 (stereo unspecified)
- growth at 10 µM [1]: -2%
- growth at 1 µM [2]: 9.6%
- GI50 [3]: < 100 nM
- LC50 (concentration killing 50% of cells) [4]: > 100000 nM
- growth at 0.1 µM [5]: 3.7%
- TGI [6]: 151 nM
- growth at 100 µM [7]: -45.3%

SMILES: O=C1CC(c2cccc(O)c2)Nc2c(Br)cc(Br)cc21 (stereo unspecified)
- growth at 10 µM [1]: 25.6%
- growth at 1 µM [2]: 108%
- GI50 [3]: > 100000 nM
- LC50 (concentration killing 50% of cells) [4]: > 100000 nM
- growth at 0.1 µM [5]: 118%
- TGI [6]: > 100000 nM
- growth at 100 µM [7]: 14.7%

SMILES: CN(C)c1ccc(C2CC(=O)c3cc(Br)cc(Br)c3N2)cc1 (stereo unspecified)
- growth at 10 µM [1]: 130%
- growth at 1 µM [2]: 144%
- GI50 [3]: > 100000 nM
- LC50 (concentration killing 50% of cells) [4]: > 100000 nM
- growth at 0.1 µM [5]: 164%
- TGI [6]: > 100000 nM
- growth at 100 µM [7]: 43%

SMILES: COc1cc(C2CC(=O)c3cc(Br)cc(Br)c3N2)cc(OC)c1OC (stereo unspecified)
- growth at 10 µM [1]: 99.6%
- growth at 1 µM [2]: 110%
- GI50 [3]: > 100000 nM
- LC50 (concentration killing 50% of cells) [4]: > 100000 nM
- growth at 0.1 µM [5]: 130%
- TGI [6]: > 100000 nM
- growth at 100 µM [7]: 34.3%

SMILES: O=C1CC(c2ccc(F)cc2)Nc2c(Br)cc(Br)cc21 (stereo unspecified)
- growth at 10 µM [1]: -3.6%
- growth at 1 µM [2]: 9.2%
- GI50 [3]: < 100 nM
- LC50 (concentration killing 50% of cells) [4]: > 100000 nM
- growth at 0.1 µM [5]: 30.1%
- TGI [6]: 145 nM
- growth at 100 µM [7]: -48.1%

SMILES: O=C1CC(c2ccc(Cl)cc2)Nc2c(Br)cc(Br)cc21 (stereo unspecified)
- growth at 10 µM [1]: 34.5%
- growth at 1 µM [2]: 61.7%
- GI50 [3]: 146 nM
- LC50 (concentration killing 50% of cells) [4]: > 100000 nM
- growth at 0.1 µM [5]: 60.2%
- TGI [6]: 2870 nM
- growth at 100 µM [7]: -40%

SMILES: COc1cccc2c1C(=O)c1c(O)c3c(c(O)c1C2=O)C[C@@](O)(C(=O)CO)C[C@@H]3O[C@H]1C[C@H](N)[C@H](O)[C@H](C)O1.Cl [DOXORUBICIN HYDROCHLORIDE]
- growth at 10 µM [1]: -23.7%
- growth at 1 µM [2]: -13.9%
- GI50 [3]: < 100 nM
- growth at 0.1 µM [5]: 53.5%
- TGI [6]: 183 nM
- growth at 100 µM [7]: -33.5%
